This assay deals with recombinant human HPK1 (Homo sapiens (Human), UniProt Q92918). Kind of assay: HPK1 kinase assay (ADP-Glo). Type of assay: biochemical. Particulars: 25 μM ATP, MBP substrate. The procedure, abridged: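 Activity was read as ADP formed, detected by ADP-Glo luminescence after the reaction of 5 ng recombinant human HPK1 with MBP and ATP (stocks 0.5 μg/μl and 25 μM) for 40 min at 30 °C. Buffer was Tris pH 7.5 with MgCl2, BSA and DTT, with compound in 0.5% DMSO. IC50 came from inhibition curves.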
recombinant human HPK1, sequence (Q92918 whole entry): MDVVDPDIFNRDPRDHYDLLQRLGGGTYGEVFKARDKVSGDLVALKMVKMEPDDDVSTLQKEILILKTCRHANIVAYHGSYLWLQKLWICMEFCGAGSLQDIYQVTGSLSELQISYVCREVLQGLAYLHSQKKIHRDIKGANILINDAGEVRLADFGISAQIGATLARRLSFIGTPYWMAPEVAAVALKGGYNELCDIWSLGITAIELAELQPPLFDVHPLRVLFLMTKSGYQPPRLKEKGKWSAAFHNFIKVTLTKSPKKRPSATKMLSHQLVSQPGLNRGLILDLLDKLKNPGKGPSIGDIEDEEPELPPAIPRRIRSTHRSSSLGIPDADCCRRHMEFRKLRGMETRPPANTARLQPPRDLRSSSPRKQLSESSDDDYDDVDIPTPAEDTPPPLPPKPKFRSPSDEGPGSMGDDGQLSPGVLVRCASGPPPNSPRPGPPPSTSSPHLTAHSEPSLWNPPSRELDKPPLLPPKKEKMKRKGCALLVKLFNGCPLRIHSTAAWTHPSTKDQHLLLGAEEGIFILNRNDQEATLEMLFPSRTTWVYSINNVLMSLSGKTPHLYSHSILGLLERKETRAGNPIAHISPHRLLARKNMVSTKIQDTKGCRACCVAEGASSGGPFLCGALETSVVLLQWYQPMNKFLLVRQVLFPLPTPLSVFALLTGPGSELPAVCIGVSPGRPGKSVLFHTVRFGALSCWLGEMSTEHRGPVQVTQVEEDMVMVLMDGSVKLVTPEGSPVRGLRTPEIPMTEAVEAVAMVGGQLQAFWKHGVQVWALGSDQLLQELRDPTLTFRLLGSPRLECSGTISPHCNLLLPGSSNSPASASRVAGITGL
Take `Cc1cccn1-c1c(F)c(Cl)c(-c2ccn3nc(NC(=O)[C@@H]4C[C@@H]4F)cc3c2)c2cn[nH]c12` [Example 644, (1S,2S)-N-(5-(5-chloro-6-fluoro-7-(2-methyl-1H-pyrrol-1-yl)-1H-indazol-4-yl)pyrazolo[1,5-a]pyridin-2-yl)-2-fluorocyclopropane-1-carboxamide]: the IC50 was less than 100 nM.
The value for `Cc1ncc(-c2c(F)c(Cl)c(-c3ccc4nc(NC(=O)[C@@H]5C[C@@H]5F)cn4c3)c3cn[nH]c23)[nH]1` [Example 442, (1S,2S)-N-(6-(5-chloro-6-fluoro-7-(2-methyl-1H-imidazol-5-yl)-1H-indazol-4-yl)imidazo[1,2-a]pyridin-2-yl)-2-fluorocyclopropane-1-carboxamide] was less than 100 nM; that for `CCc1n[nH]c2cc(F)c(C)c(-c3ccn4nc(NC(=O)[C@@H]5C[C@@H]5F)cc4c3)c12` [Example 475, (1S,2S)-N-(5-(3-ethyl-6-fluoro-5-methyl-1H-indazol-4-yl)pyrazolo[1,5-a]pyridin-2-yl)-2-fluorocyclopropane-1-carboxamide] was more than 1000 nM.
The same measure for `CSc1c(F)c(F)c2[nH]ncc2c1-c1ccn2nc(NC(=O)[C@H]3C[C@@H]3F)cc2c1` [Example 600, (1R,2S)-N-(5-(6,7-difluoro-5-(methylthio)-1H-indazol-4-yl)pyrazolo[1,5-a]pyridin-2-yl)-2-fluorocyclopropane-1-carboxamide]: less than 100 nM; for `O=C(Nc1cn2cc(-c3c(Cl)c(F)c(NC4CC4)c4[nH]ncc34)ccc2n1)[C@@H]1C[C@@H]1F` [Example 367, (1S,2S)-N-(6-(5-chloro-7-(cyclopropylamino)-6-fluoro-1H-indazol-4-yl)imidazo[1,2-a]pyridin-2-yl)-2-fluorocyclopropane-1-carboxamide]: less than 100 nM; for `CN1CCN(c2c(F)c(Cl)c(-c3ccc4nc(NC(=O)[C@@H]5C[C@@H]5F)cn4c3)c3cn[nH]c23)CC1` [Example 277, (1S,2S)-N-(6-(5-chloro-6-fluoro-7-(4-methylpiperazin-1-yl)-1H-indazol-4-yl)imidazo[1,2-a]pyridin-2-yl)-2-fluorocyclopropane-1-carboxamide]: 101 to 500 nM.
The same measure for `CN(C)C(=O)CSc1c(F)c(Cl)c(-c2ccc3nc(NC(=O)[C@@H]4C[C@@H]4F)sc3c2)c2cn[nH]c12` [Example 99, (1S,2S)-N-(6-(5-chloro-7-((2-(dimethylamino)-2-oxoethyl)thio)-6-fluoro-1H-indazol-4-yl)benzo[d]thiazol-2-yl)-2-fluorocyclopropane-1-carboxamide]: less than 100 nM.
Turning to `Cc1c(F)c(F)c2[nH]ncc2c1-c1ccc2nc(NC(=O)[C@@H]3C[C@@H]3F)sc2c1` [Example 109, (1S,2S)-N-(6-(6,7-difluoro-5-methyl-1H-indazol-4-yl)benzo[d]thiazol-2-yl)-2-fluorocyclopropane-1-carboxamide], the 50% inhibitory concentration (IC50) was less than 100 nM.
As to `NC(=O)c1c(F)c(Cl)c(-c2ccn3nc(NC(=O)[C@@H]4C[C@@H]4F)cc3c2)c2cn[nH]c12` [Example 576, 5-chloro-6-fluoro-4-(2-((1S,2S)-2-fluorocyclopropane-1-carboxamido)pyrazolo[1,5-a]pyridin-5-yl)-1H-indazole-7-carboxamide], the concentration for half-maximal inhibition (IC50) was more than 1000 nM.
The same measure for `CC(NC=O)c1c(F)c(Cl)c(-c2ccc3nc(NC(=O)[C@@H]4C[C@@H]4F)cn3c2)c2cn[nH]c12` (stereo partly drawn) [Example 426, (1S,2S)-N-(6-(5-chloro-6-fluoro-7-(1-formamidoethyl)-1H-indazol-4-yl)imidazo[1,2-a]pyridin-2-yl)-2-fluorocyclopropane-1-carboxamide]: less than 100 nM.
The value for `CC(=O)NC(C)c1c(F)c(Cl)c(-c2ccn3nc(NC(=O)[C@@H]4C[C@@H]4F)cc3c2)c2cn[nH]c12` (stereo partly drawn) [Example 663, (1S,2S)-N-(5-(7-(1-acetamidoethyl)-5-chloro-6-fluoro-1H-indazol-4-yl)pyrazolo[1,5-a]pyridin-2-yl)-2-fluorocyclopropane-1-carboxamide] was less than 100 nM.
The value for `Cc1ccc2[nH]ncc2c1-c1ccc2nc(NC(=O)C3CCC3)sc2c1` [Example 4, N-(6-(5-methyl-1H-indazol-4-yl)benzo[d]thiazol-2-yl)cyclobutanecarboxamide] was 501 to 1000 nM.
With `Cc1c(F)c([S+](C)[O-])c2[nH]ncc2c1-c1ccc2nc(NC(=O)[C@@H]3C[C@@H]3F)cn2c1` (stereo partly drawn) [Example 299, (1S,2S)-2-fluoro-N-(6-(6-fluoro-5-methyl-7-(methylsulfinyl)-1H-indazol-4-yl)imidazo[1,2-a]pyridin-2-yl)cyclopropane-1-carboxamide], the concentration for half-maximal inhibition (IC50) fell in the range of 101 to 500 nM.
In the case of `NC1CCC(Nc2c(F)c(Cl)c(-c3ccn4nc(NC(=O)[C@@H]5C[C@@H]5F)cc4c3)c3cn[nH]c23)CC1` (stereo partly drawn) [Example 515, (1S,2S)-N-(5-(7-((4-aminocyclohexyl)amino)-5-chloro-6-fluoro-1H-indazol-4-yl)pyrazolo[1,5-a]pyridin-2-yl)-2-fluorocyclopropane-1-carboxamide], the IC50 was less than 100 nM.
As to `CCc1c(F)c(SC)c2[nH]ncc2c1-c1ccc2nc(NC(=O)[C@@H]3C[C@@H]3F)sc2c1` [Example 103, (1S,2S)-N-(6-(5-ethyl-6-fluoro-7-(methylthio)-1H-indazol-4-yl)benzo[d]thiazol-2-yl)-2-fluorocyclopropane-1-carboxamide], the IC50 is less than 100 nM.
On to `O=C(Nc1nc2ccc(-c3c(C4CC4)ccc4[nH]ncc34)cc2s1)[C@@H]1C[C@@H]1F` [Example 37, (1S,2S)-N-(6-(5-cyclopropyl-1H-indazol-4-yl)benzo[d]thiazol-2-yl)-2-fluorocyclopropane-1-carboxamide], for which the IC50 lay in the range of 101 to 500 nM.
The same measure for `O=C(Nc1cc2cc(-c3cc(F)c(OC(F)(F)F)c4[nH]ncc34)ccn2n1)[C@@H]1C[C@@H]1F` [Example 587, (1S,2S)-2-fluoro-N-(5-(6-fluoro-7-(trifluoromethoxy)-1H-indazol-4-yl)pyrazolo[1,5-a]pyridin-2-yl)cyclopropane-1-carboxamide]: less than 100 nM.
On to `O=C(Nc1cc2cc(-c3c(Cl)c(F)c(O)c4[nH]ncc34)ccn2n1)[C@@H]1C[C@@H]1F` [Example 528, (1S,2S)-N-(5-(5-chloro-6-fluoro-7-hydroxy-1H-indazol-4-yl)pyrazolo[1,5-a]pyridin-2-yl)-2-fluorocyclopropane-1-carboxamide], for which the IC50 is less than 100 nM.
The same measure for `CNC(=O)c1c(F)c(Cl)c(-c2ccc3nc(NC(=O)[C@@H]4C[C@@H]4F)sc3c2)c2cn[nH]c12` [Example 127, 5-chloro-6-fluoro-4-(2-((1S,2S)-2-fluorocyclopropane-1-carboxamido)benzo[d]thiazol-6-yl)-N-methyl-1H-indazole-7-carboxamide]: less than 100 nM.
The same measure for `Cc1c(F)cc2[nH]nc(Br)c2c1-c1ccc2nc(NC(=O)[C@@H]3C[C@@H]3F)sc2c1` [Example 49, (1S,2S)-N-(6-(3-bromo-6-fluoro-5-methyl-1H-indazol-4-yl)benzo[d]thiazol-2-yl)-2-fluorocyclopropane-1-carboxamide]: 501 to 1000 nM; for `O=C(Nc1nc2ccc(-c3c(Cl)c(F)c(C(F)F)c4[nH]ncc34)nc2s1)[C@@H]1C[C@@H]1F` [Example 209, (1S,2S)-N-(5-(5-chloro-7-(difluoromethyl)-6-fluoro-1H-indazol-4-yl)thiazolo[5,4-b]pyridin-2-yl)-2-fluorocyclopropane-1-carboxamide]: less than 100 nM.
